# Results reported in article PMC7248880, “Preclinical Incorporation Dosimetry of [^18F]FACH—A Novel ^18F-Labeled MCT1/MCT4 Lactate Transporter Inhibitor for Imaging Cancer Metabolism with PET” (Molecules, 2020).
# Assay: Vital sign monitoring after iv injection
# Format: in vivo
# Settings: iv 156 ± 54 MBq (0.63 ± 0.49 µg), anesthetized piglets
# Text: The radiation safety of the newly developed MCT1/MCT4-specific radioligand [^18F]FACH was preclinically investigated. […] Afterwards, volumes of interest (VOIs) of the various organs were manually defined using the respective whole-body CT dataset for anatomical orientation. The estimated TIACs were extrapolated to the human entity (Equation (2)), followed by estimation of the organ doses with OLINDA 2.1 and calculation of the effective dose using tissue weighting factors as published in Publication 103 of the International Commission of Radiation Protection (ICRP103). Finally, it can be concluded that [^18F]FACH is safe with respect to the radiation risk that is caused by its systemic application for PET studies. This supports and encourages the translation of this newly developed radiopharmaceutical to clinical study phases.
# Three piglets (age: ~6 weeks, weight: ~13–15 kg) were fasted on the day of imaging and received an intranuscular. injection of 1 mL azaperone and 4 mL ketamine to introduce anesthesia. […] During narcosis, the animals maintained spontaneous respiration and no mandatory ventilation was applied. The subjects were sequentially imaged after an iv injection (contralateral ear vein) of 156 ± 54 MBq [^18F]FACH (0.63 ± 0.49 µg) in a PET/CT system (Biograph16, SIEMENS, Erlangen, Germany). […]
smiles,measurement,value
"CCCN(CCC[18F])c1ccc(/C=C(\C#N)C(=O)O)c(OC)c1 [[^18F]FACH, (E)-2-cyano-3-{4-[(3-[^18F]fluoropropyl)(propyl)amino]-2-methoxyphenyl}acrylic acid]",adverse effects based on vital sign monitoring,no adverse effects were observed
